{
  "source": "patent US20260234116A1",
  "about": "“CYTOTOXIC EPOXYKETONE COMPOUNDS, PRECURSORS, COMPOSITIONS, AND METHODS OF USE” (Memorial Sloan-Kettering Cancer Center, priority 2023, published 2026)",
  "key": {"U266 cells": {"system": "U266 cells", "assay": "In situ activation of β-ketoacid 11a by EpnF, cell viability, CellTitre-Glo, 48 h", "assay_type": "cell-based", "conditions": "U266, 48 h", "protocol": "For in situ activation of β-ketoacid 11a by EpnF, U266 cells were seeded in a 96-well plate as above, at 20,000 cells per well in […] RPMI. Recombinant EpnF (100 μM in EpnF Buffer) was diluted in RPMI to 5 μM concentration (300 μL final volume), then 10 μL of this enzyme solution was added to the plate wells to 0.5 μM EpnF final concentration. Stock solutions (20 mM) of β-ketoacid 11a and epoxyketone 12a in EtOH or DMSO, respectively, were diluted to 5% EtOH or DMSO in RPMI to provide working stocks at 1 mM. The working stocks were log-diluted to 1 mM-0.05 μM using RPMI containing 5% EtOH or 5% DMSO, respectively. Aliquots of compounds (10 μL) were added to the sample wells for final concentrations of 100-0.005 μM. Separate negative control wells were treated with 10 μL of 5% EtOH or 5% DMSO in RPMI (0.5% final concentration). The cells were incubated for 48 hr, then cell viability was measured with the CellTitre-Glo assay. Results of compound-treated wells were normalized to negative control wells."}, "EpnF": {"target": "EpnF (Streptomyces hygroscopicus, UniProt V5RMU9)", "sequence (V5RMU9 entry or part of it)": "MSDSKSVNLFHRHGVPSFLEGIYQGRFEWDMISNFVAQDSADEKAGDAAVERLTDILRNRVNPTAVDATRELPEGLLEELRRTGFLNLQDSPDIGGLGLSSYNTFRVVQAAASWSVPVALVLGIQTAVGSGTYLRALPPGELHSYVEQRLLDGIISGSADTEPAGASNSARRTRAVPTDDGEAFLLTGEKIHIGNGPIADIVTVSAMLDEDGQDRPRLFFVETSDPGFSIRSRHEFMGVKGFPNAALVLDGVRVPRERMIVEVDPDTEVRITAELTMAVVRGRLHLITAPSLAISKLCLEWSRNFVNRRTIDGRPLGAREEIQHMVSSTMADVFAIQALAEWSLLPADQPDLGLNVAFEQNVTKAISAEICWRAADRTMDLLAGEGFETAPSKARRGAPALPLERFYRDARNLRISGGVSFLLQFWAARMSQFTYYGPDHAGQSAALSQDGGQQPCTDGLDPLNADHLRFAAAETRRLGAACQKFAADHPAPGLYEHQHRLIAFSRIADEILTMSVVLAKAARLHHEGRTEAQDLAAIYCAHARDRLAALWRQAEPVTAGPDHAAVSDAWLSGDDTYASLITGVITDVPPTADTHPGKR", "assay": "Semiquantitative epoxide capture assay (EpnF-catalyzed epoxyketone formation)", "assay_type": "biochemical", "conditions": "1 μM EpnF, 250 μM β-ketoacid substrate, 1 h; positive control 11n (FIG. 1)", "protocol": "Recombinant EpnF was diluted to 1 μM in 180 μL EpnF Buffer in an 1.5 mL Eppendorf tube. The β-ketoacid 11 was added at various concentrations to a total reaction volume of 200 μL. The mixture was incubated in a heated shaker at 37° C. and 225 rpm for 1 h. The reaction mixture (30 μL×3 technical replicates) was transferred to a white, opaque 96-well plate (PerkinElmer, OptiPlate-96). Each plate also contained 30 μL×3 technical replicates of EpnF Buffer as a negative control. To each well, 15 μL of 125 mM nicotinamide in EpnF Buffer was added and mixed by pipetting. The plate was sealed with an adhesive foil cover (VWR Adhesive Foil for Microplates) and heated in an oven at 80° C. for 1 h. The plate was cooled to rt and 25 μL of 15% (v/v) acetophenone in EtOH and 25 μL of 1 M potassium hydroxide in EtOH were added to each well, then mixed by pipetting. The plate was cooled on ice for 10 min, then 125 μL formic acid was added to each well. The plate was resealed and heated in an oven at 100° C. for 5 min. The plate was cooled on ice for 5-10 min, then analyzed (λex 370 nm, λem 430 nm) on a fluorescence plate reader (Molecular Devices Spectramax M3).\nWe adapted a reported epoxide capture assay [Nelis, H. J. C. F.; Sinsheimer, J. E. (1981) A sensitive fluorimetric procedure for the determination of aliphatic epoxides under physiological conditions. Anal. Biochem. 115, 151-157.] to 96-well plate format to detect formation of the epoxyketone products semiquantitatively. Each β-ketoacid substrate 11 was incubated with recombinant, purified EpnF (1 h), then reacted with nicotinamide and acetophenone (1 h) to form a fluorescent 1,6-naphthyridinone 24. The fluorescent signals were normalized to that resulting from the known substrate β-ketoacid 11n as a positive control [Zabala, D.; Cartwright, J. W.; Roberts, D. M.; Law, B. J. C.; Song, L.; Samborskyy, M.; Leadlay, P. F.; Micklefield, J.; Challis, G. L. (2016) A flavin-dependent decarboxylase-dehydrogenase-monooxygenase assembles the warhead of α,β-epoxyketone proteasome inhibitors. J. Am. Chem. Soc. 138, 4342-4345.]."}},
  "data": [
    {"smiles": "CC(C)CCCCC(=O)N[C@@H](CO)C(=O)N[C@@H](CC(C)C)C(=O)C(C)(C)C(=O)O", "note": "[Compound 11a, (4S)-4-[(2S)-3-Hydroxy-2-(6-methylheptanamido)propanamido]-2,2,6-trimethyl-3-oxoheptanoic acid]", "values": [
      {"measurement": "cytotoxicity of β-ketoacid activated in situ", "setting": "U266 cells; in presence of EpnF (0.5 μM)", "result": "cytotoxicity comparable to that of the corresponding isolated epoxyketone 12a"},
      {"measurement": "no cytotoxicity at up to (concentration)", "setting": "U266 cells; prodrug alone, absence of EpnF", "result": "> 100", "unit": "µM"},
      {"measurement": "EpnF-catalyzed formation of epoxyketone (epoxide capture)", "setting": "EpnF", "result": "levels comparable to that of the positive control"}
    ]}
  ]
}
